The source of these data is paper PMC10180197, “Novel Pyrimidine Derivatives as Antioxidant and Anticancer Agents: Design, Synthesis and Molecular Modeling Studies” (Molecules, 2023).

A word on the viability: it is a per cent measure of how many cells are alive, often set against a control.

The nature of data set [1]: Inhibition of AAPH induced linoleic acid peroxidation. The protocol: For the lipid peroxidation study, 2,2′-Azobis(2-methylpropionamidine) dihydrochloride (AAPH) was used as the generator of peroxy radicals and sodium linoleate as the substrate that undergoes peroxidation. The conversion of linoleic acid to 13-hydroperoxy-linoleic acid was recorded at 234 nm. The change of absorbance reflects the possible antioxidant activity of the tested compounds, in comparison with the reference compound, Trolox.
In vitro study was performed as reported previously by our group. AAPH was used as a free radical generator of alkyl peroxyl radicals. For this experimental procedure, 10 μL of the tested compound (from the stock solution), 10 μL sodium linoleate (16 mM), 50 μL AAPH (40 mM) and 930 μL phosphate-buffered solution (pH 7.4) were added in a UV cuvette (1 mL), pre thermostated at 37 °C. The ability of the compounds to prevent the oxidation of linoleic acid from alkyl peroxyl radicals was evaluated by recording the change of absorbance at 234 nm, due to the conversion of linoleic acid to 13-hydroperoxy-linoleic acid. Trolox was used as the reference.

Data set [2] is described as follows: MTT cell viability assay, HaCaT. It is filed as cell-based, human. Particulars: human, HaCaT cells (epidermal keratinocyte cell line); for viability at 24 h, 10 μM: 10 μΜ; for viability at 24 h, 50 μM: 50 μΜ. On the procedure:
(§1) The MTT (3-(4,5-dimethylthiazol-2-yl)-2,5-diphenyltetrazolium bromide) assay is a colorimetric method that is used for the evaluation of cell viability. MTT is converted into colored formazan crystals, indicating the activity of mitochondria and therefore the viability of the cells. Unlike dead cells, the metabolic processes of living cells are functional, meaning that the dehydrogenase enzymes are able to reduce the yellow MTT salt solution to purple crystals, at 37 °C. The intensity of the sample’s color, due to the amount of formazan crystals, is proportional to the number of the living cells in it. Additionally, the colored product is dissolved in various solubilizing agents, such as dimethyl sulfoxide (DMSO). The colored products can be quantitatively measured at 450 nm with a plate reader spectrophotometer. In this study, the human epidermal keratinocyte cell line (HaCaT) was treated with different concentrations (100 μM, 50 μM, 10 μM and 1 μM) of the tested compounds and then the viability rates at each effect were calculated.
(§2) Τhe MTT assay was used to evaluate cell viability or cell toxicity, depending on the cell line being tested. The experimental procedure was performed in a 96-well plate, where the cells were seeded and incubated (37 °C, 5% CO2) for 24 h to grow and cover the surface of the wells. Τhe seeding concentrations for the HaCaT and A549 cells were 30 × 10^4 cells/mL and 20 × 10^4 cells/mL, respectively. After the first incubation, the solutions of the compounds (with different concentrations) were added to the adherent cells and incubated for another 24 h. The compounds were tested in triplicate against the control (only cells in medium), the blank (only medium) and the positive/negative control (cells in 100 μM silibinin solution) triplicates. Silibinin, a flavonoid with known anticancer activities, was used as a negative control for the cell viability assay and as positive control for the cytotoxicity testing assay. The light-sensitive MTT-standard solution was prepared by dissolving 1 mg/mL MTT in PBS and then filtrated (in a […] filter (Millipore, Carrigtwohill, Ireland)). On the third day, an appropriate amount of ΜΤΤ solution was added to each well and the plate was incubated for 4 h. During the incubation time, the formazan crystals were formed, which were then dissolved with 100 μL DMSO per well. Finally, the plate was stirred for 30 min, and the optical density (OD) was measured in a plate reader spectrophotometer at 450 nm.
(Tetrazolium assays rely on reduction of a dye to a coloured formazan, in cell work by metabolically active cells.)

Data set [3] has as its system HaCaT cell line. Kind of data set: MTT cell viability assay, HaCaT. It counts as cell-based, human. As to conditions: 100 μΜ, 24 h. The protocol:
as §1, §2

Data set [4] is described as follows: Reducing activity of the stable radical DPPH. The protocol: All the synthesized compounds were studied for their ability to interact with the stable free 2,2-diphenyl-1-picrylhydrazyl radical (DPPH) at a concentration of 100 μM after 20 min and 60 min (Table 4). This assay is based on the reduction of DPPH by transferring one electron from the antioxidant.
In vitro study was performed as reported previously by our group. In this experiment, 20 μL of the tested compound (from the stock solution), 980 μL EtOH and 1 mL ethanolic solution of DPPH (100 μM) were added in a testing tube in a final volume of 2 mL. The free radical scavenging ability was evaluated by recording the change of absorbance at 517 nm, produced by the reduction of DPPH, after 20 and 60 min at room temperature.
Background: Loss of DPPH colour is used to gauge radical scavenging.

Data set [5] is described as follows: Experimental determination of lipophilicity as RM values (RP-TLC). It is filed as physicochemical. Particulars: methanol/water 70/30 v/v, 24 °C, SD < 10%. The text has this:
Lipophilicity is an important physicochemical parameter of a drug candidate, linking solubility and membrane permeability with the ADMET (absorption, distribution, metabolism, elimination and toxicity) properties and the overall suitability of a molecule. Reversed-phase thin-layer chromatography was the method used to experimentally determine the lipophilic character of the synthesized compounds as RM values (Table 2). Lipophilicity was also theoretically calculated as clog P values using the Bio-Loom program of BioByte Corp (http://www.biobyte.com/, (accessed on 1 March 2023)). An attempt was made to correlate the experimental RM values with the theoretically calculated clog P values (Table 2). […] This disagreement could be attributed to several factors, e.g., different solvation, silanophilic interactions and hydrogen bonding.
Lipophilicity as RM values was determined through reversed-phase TLC (RP-TLC) on silica gel plates impregnated with 5% v/v liquid paraffin in light petroleum ether. Methanol/water mixture (70/30, v/v) was used as mobile phase. Closed chromatography tanks saturated with the mobile phase at 24 °C were used for the development of the plates while the spots were detected under UV light. For the determination of RM values, five individual measurements of Rf values were recorded, and the RM values were derived from the following Equation (1). (1) RM=log1/Rf−1

In data set [6] the test system is A549 cell line. Briefly: MTT cytotoxicity assay, A549. Particulars: Homo sapiens, 24 h; for cytotoxicity at 10 µM: A549, 10 μΜ, read-out: % Cell Toxicity 10 μΜ; for cytotoxicity at 50 µM: A549, 50 μΜ, read-out: % Cell Toxicity 50 μΜ; for cytotoxicity at 100 µM: A549, 100 μΜ, read-out: % Cell Toxicity 100 μΜ. It counts as cell-based, human. On the procedure:
The compounds of this study were also tested for their cytotoxic effects against the adenocarcinomic human alveolar basal epithelial cell line (A549) at different concentrations (100 μM, 75 μΜ, 50 μM and 10 μM).
as §2

On to `O=c1[nH]c(=S)[nH]c2nc(-c3ccc(Cl)cc3)cc(-c3ccccc3)c12` [Compound 2b, 7-(4-chlorophenyl)-5-phenyl-2-thioxo-2,3-dihydropyrido [2,3-d]pyrimidin-4(1H)-one], for which, in data set [1], the “AAPH % Inhibition 100 μM” value is recorded as 62%. For the same compound, in data set [2], the viability at 24 h, 10 μM was determined as 75.1% and the viability at 24 h, 50 μM was 26%. In data set [3], the “% Cell Viability 100 μΜ” value is “no”. Moreover, in data set [4], the “RA % 100 μM 20 min” value was “no” and the “RA % 100 μM 60 min” value was 1%. Further, the RM in data set [5] is listed as −0.87. In addition, in data set [6], the cytotoxicity at 10 µM worked out at 47.9%, the cytotoxicity at 50 µM amounted to 83.5% and the cytotoxicity at 100 µM came to 100%.
In the case of `O=C(/C=C/c1ccc(Cl)cc1Cl)c1ccc(Cl)cc1` [Compound 1h, (E)-1-(4-chlorophenyl)-3-(2,4-dichlorophenyl)prop-2-en-1-one], the “AAPH % Inhibition 100 μM” value in data set [1] is on record as 2%. This compound displayed a viability at 24 h, 10 μM in data set [2] of 25.4%. Besides, the “% Cell Viability 100 μΜ” value in data set [3] is recorded as “no”. Also, in data set [4], the “RA % 100 μM 20 min” value is “no” and the “RA % 100 μM 60 min” value is “no”. Further, in data set [5], the RM was −0.05. In addition, in data set [6], the cytotoxicity at 10 µM was determined as 49.1%, the cytotoxicity at 50 µM came to 81.1% and the cytotoxicity at 100 µM turned out to be 100%.
On to `O=C(/C=C/c1ccc(Cl)cc1)c1ccc(Cl)cc1` [Compound 1f, (E)-1,3-bis(4-chlorophenyl)prop-2-en-1-one], for which the “AAPH % Inhibition 100 μM” value in data set [1] was found to be 51%. In data set [2], this compound showed a viability at 24 h, 10 μM of 100% and a viability at 24 h, 50 μM of 57%. Further, in data set [3], the “% Cell Viability 100 μΜ” value is “no”. In data set [4], the “RA % 100 μM 20 min” value was “no” and the “RA % 100 μM 60 min” value is reported as “no”. Moreover, the RM in data set [5] is listed as −0.24. For the same compound, in data set [6], the cytotoxicity at 10 µM amounted to 48.9%, the cytotoxicity at 50 µM was determined as 67.6% and the cytotoxicity at 100 µM is 100%.
`O=c1[nH]c(=S)[nH]c2nc(-c3ccccc3)cc(-c3cccs3)c12` [Compound 2c, 7-phenyl-5-(thiophen-2-yl)-2-thioxo-2,3-dihydropyrido [2,3-d]pyrimidin-4(1H)-one]: in data set [1], the “AAPH % Inhibition 100 μM” value amounted to 52%. Further, in data set [2], the viability at 24 h, 10 μM came out at 16.1%. In addition, the “% Cell Viability 100 μΜ” value in data set [3] is “no”. In data set [4], the “RA % 100 μM 20 min” value is given as 14% and the “RA % 100 μM 60 min” value was found to be 10%. Further, the RM in data set [5] is given as −0.83. Further, in data set [6], the cytotoxicity at 10 µM is 49.4%, the cytotoxicity at 50 µM was determined as 63.6% and the cytotoxicity at 100 µM was 100%.
In the case of `O=C(/C=C/c1cccs1)c1ccc(Cl)cc1` [Compound 1d, (E)-1-(4-chlorophenyl)-3-(thiophen-2-yl)prop-2-en-1-one], the “AAPH % Inhibition 100 μM” value in data set [1] came out at 8%. Also, in data set [2], the viability at 24 h, 10 μM was 72.8% and the viability at 24 h, 50 μM amounted to 53%. Besides, the “% Cell Viability 100 μΜ” value in data set [3] is recorded as “no”. Besides, in data set [4], the “RA % 100 μM 20 min” value is on record as “no” and the “RA % 100 μM 60 min” value was “no”. The RM in data set [5] is listed as −0.46. Moreover, in data set [6], the cytotoxicity at 10 µM was found to be 47.4%, the cytotoxicity at 50 µM is 83.2% and the cytotoxicity at 100 µM was 100%.
`O=C(/C=C/c1ccccc1)c1ccccc1` [Compound 1a, (E)-1,3-diphenylprop-2-en-1-one]: the “AAPH % Inhibition 100 μM” value in data set [1] turned out to be 6%. The viability at 24 h, 10 μM in data set [2] was found to be 55.1%. Moreover, in data set [3], the “% Cell Viability 100 μΜ” value is “no”. In data set [4], the “RA % 100 μM 20 min” value is 22% and the “RA % 100 μM 60 min” value is “no”. Moreover, the RM in data set [5] is listed as −0.57. Further, in data set [6], the cytotoxicity at 10 µM stood at 41.8%, the cytotoxicity at 50 µM was 81.6% and the cytotoxicity at 100 µM is 100%.
